Test results as given in patent US9376436B2, “2-(pyridin-2yl)-1, 7-diaza-spiro [4.4] nonane-6-one compound as voltage-gated sodium channels modulators” (CONVERGENCE PHARMACEUTICALS LIMITED, priority 2011, dated 2016).
Counter-ions that a name gives are not always drawn. Like-named read-outs stand apart in the source and are kept apart here.

Molecular target: T1, hNaV1.7 (Homo sapiens, UniProt Q15858)
T1 construct: expressed in transfected cells; host or cells: HEK293
Experiment: QPatch NaV1.7 assay (whole-cell patch clamp, QPatch16x)
Type: cell-based
Conditions: HEK293-hNaV1.7 cells
In short: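 Automated whole-cell recordings in hNaV1.7-expressing HEK293 cells, holding at either −90 mV (mostly closed channels) or the half-inactivation voltage. Compounds applied cumulatively at four concentrations for 120 s each; peak current on 20 ms depolarisation to 0 mV fitted by Hill equation to yield pIC50.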

[1] = holding voltage V1/2 SSI (half of channels inactivated), read-out: QP Nav1.7 SSI vhalf pIC50 (converted)
[2] = holding voltage −90 mV (most channels closed), read-out: QP Nav1.7 −90 mV pIC50 (converted)

T1 sequence (Q15858 whole entry): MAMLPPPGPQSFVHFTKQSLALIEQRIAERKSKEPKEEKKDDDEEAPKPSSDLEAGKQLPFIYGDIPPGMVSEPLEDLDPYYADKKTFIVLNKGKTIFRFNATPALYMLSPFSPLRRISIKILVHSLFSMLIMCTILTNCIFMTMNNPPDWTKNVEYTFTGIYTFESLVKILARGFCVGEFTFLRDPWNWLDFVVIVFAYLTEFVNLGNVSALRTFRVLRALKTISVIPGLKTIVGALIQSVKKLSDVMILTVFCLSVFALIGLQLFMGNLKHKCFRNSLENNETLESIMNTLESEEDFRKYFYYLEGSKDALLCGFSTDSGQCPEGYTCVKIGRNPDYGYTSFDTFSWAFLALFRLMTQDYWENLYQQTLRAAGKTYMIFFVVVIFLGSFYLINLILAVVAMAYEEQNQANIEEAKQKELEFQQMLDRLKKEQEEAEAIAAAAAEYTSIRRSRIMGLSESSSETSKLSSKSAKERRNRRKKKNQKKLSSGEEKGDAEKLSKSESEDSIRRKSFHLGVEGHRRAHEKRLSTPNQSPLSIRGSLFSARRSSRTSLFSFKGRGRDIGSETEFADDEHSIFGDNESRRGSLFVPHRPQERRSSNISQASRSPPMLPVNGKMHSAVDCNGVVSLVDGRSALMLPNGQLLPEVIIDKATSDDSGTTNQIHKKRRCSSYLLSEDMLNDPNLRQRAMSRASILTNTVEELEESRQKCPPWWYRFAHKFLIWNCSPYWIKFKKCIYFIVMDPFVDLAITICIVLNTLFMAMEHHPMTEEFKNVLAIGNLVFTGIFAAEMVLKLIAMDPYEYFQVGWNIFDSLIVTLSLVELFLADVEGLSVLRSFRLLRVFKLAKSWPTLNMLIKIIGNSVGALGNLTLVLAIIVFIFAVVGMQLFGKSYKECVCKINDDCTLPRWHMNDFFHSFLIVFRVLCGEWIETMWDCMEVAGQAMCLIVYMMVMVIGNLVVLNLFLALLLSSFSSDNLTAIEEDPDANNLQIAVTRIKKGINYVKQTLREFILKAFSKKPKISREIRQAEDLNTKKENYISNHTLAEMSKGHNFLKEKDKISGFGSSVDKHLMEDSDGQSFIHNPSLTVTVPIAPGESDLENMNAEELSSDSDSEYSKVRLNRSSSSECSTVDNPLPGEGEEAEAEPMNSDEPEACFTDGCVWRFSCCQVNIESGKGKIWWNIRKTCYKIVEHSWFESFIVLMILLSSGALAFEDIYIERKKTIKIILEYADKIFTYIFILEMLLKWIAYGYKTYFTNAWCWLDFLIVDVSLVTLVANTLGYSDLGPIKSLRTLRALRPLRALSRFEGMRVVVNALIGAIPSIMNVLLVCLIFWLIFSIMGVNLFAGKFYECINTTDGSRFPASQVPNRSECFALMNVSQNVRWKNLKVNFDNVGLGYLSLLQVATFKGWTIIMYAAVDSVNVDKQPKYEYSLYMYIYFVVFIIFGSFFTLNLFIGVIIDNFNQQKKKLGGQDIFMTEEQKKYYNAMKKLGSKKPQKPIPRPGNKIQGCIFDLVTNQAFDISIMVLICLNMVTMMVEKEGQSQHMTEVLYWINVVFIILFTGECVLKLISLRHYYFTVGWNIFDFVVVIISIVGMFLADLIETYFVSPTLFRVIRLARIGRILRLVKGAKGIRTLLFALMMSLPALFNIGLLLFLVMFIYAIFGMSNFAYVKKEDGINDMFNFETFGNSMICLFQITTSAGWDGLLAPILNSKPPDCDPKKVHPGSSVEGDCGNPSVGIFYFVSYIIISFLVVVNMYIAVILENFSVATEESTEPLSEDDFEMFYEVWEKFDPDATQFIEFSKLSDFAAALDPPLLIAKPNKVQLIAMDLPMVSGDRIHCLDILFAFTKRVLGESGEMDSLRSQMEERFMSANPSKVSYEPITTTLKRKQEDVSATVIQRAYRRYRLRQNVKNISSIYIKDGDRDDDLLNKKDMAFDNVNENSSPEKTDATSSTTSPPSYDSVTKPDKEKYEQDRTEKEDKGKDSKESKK

Row | IC50 [1] | IC50 [2] | Structure (SMILES)
1 | 31.6 µM | 316 µM | CCOc1ccc(-c2cc(C)nc([C@@H]3CC[C@@]4(CCN(C)C4=O)N3)c2)cc1 [Example 88, (2S,5S)-2-[4-(4-Ethoxyphenyl)-6-methyl-2-pyridyl]-7-methyl-1,7-diazaspiro[4.4]nonan-6-one hydrochloride]
2 | 3.16 µM | 50.1 µM | CCOc1ccc(-c2cc(C)nc([C@H]3CC[C@@]4(CCN(C)C4=O)N3)c2)cc1 [Example 89, (3R,5S)-3-[4-(4-Ethoxyphenyl)-6-methyl-2-pyridyl]-8-methyl-4,8-diazaspiro[4.4]nonan-9-one hydrochloride]
3 | 0.316 µM | 6.31 µM | COc1cc(C(F)(F)F)ccc1-c1cc(C)nc([C@H]2CC[C@]3(CCN(C)C3=O)N2)c1 [Example 90, (3R,5R)-3-[4-[2-Methoxy-4-(trifluoromethyl)phenyl]-6-methyl-2-pyridyl]-8-methyl-4,8-diazaspiro[4.4]nonan-9-one hydrochloride]
4 | 2 µM | 39.8 µM | COc1cc(C(F)(F)F)ccc1-c1cc(C)nc([C@@H]2CC[C@]3(CCN(C)C3=O)N2)c1 [Example 91, (3S,5R)-3-[4-[2-Methoxy-4-(trifluoromethyl)phenyl]-6-methyl-2-pyridyl]-8-methyl-4,8-diazaspiro[4.4]nonan-9-one hydrochloride]
5 | 2.51 µM | 39.8 µM | CCOc1ccc(F)c(-c2cc(C)nc([C@@H]3CC[C@@]4(CCN(C)C4=O)N3)c2)c1 [Example 92, (2S,5S)-2-[4-(5-Ethoxy-2-fluoro-phenyl)-6-methyl-pyridin-2-yl]-7-methyl-1,7-diaza-spiro[4.4]nonan-6-one hydrochloride]
6 | 3.98 µM | 39.8 µM | CCOc1ccc(F)c(-c2cc(C)nc([C@H]3CC[C@@]4(CCN(C)C4=O)N3)c2)c1 [Example 93, (2R,5S)-2-[4-(5-Ethoxy-2-fluoro-phenyl)-6-methyl-pyridin-2-yl]-7-methyl-1,7-diaza-spiro[4.4]nonan-6-one hydrochloride]
7 | 0.2 µM | 3.98 µM | Cc1cc(-c2ccc(C(F)(F)F)cc2)cc([C@H]2CC[C@@]3(CCNC3=O)N2)n1 [Example 94, (2R,5S)-2-[6-Methyl-4-[4-(trifluoromethyl)phenyl]-2-pyridyl]-1,7-diazaspiro[4.4]nonan-6-one hydrochloride]
8 | 12.6 µM | 100 µM | Cc1cc(-c2ccc(C(F)(F)F)cc2)cc([C@@H]2CC[C@]3(CCNC3=O)N2)n1 [Example 95, (2S,5R)-2-[6-Methyl-4-[4-(trifluoromethyl)phenyl]-2-pyridyl]-1,7-diazaspiro[4.4]nonan-6-one hydrochloride]
9 | 3.16 µM | 20 µM | Cc1cc(-c2ccc(C(F)(F)F)cc2)cc([C@H]2CC[C@]3(CCNC3=O)N2)n1 [Example 96, (2R,5R)-2-[6-Methyl-4-[4-(trifluoromethyl)phenyl]-2-pyridyl]-1,7-diazaspiro[4.4]nonan-6-one hydrochloride]
10 | 1.26 µM | 20 µM | Cc1cc(-c2ccc(C(F)(F)F)cc2)cc([C@@H]2CC[C@@]3(CCNC3=O)N2)n1 [Example 97, (2S,5S)-2-[6-Methyl-4-[4-(trifluoromethyl)phenyl]-2-pyridyl]-1,7-diazaspiro[4.4]nonan-6-one hydrochloride]
11 | 0.631 µM | 25.1 µM | Cc1cc(-c2ccc(C(F)(F)F)cc2)cc([C@@H]2CC[C@]3(CCCNC3=O)N2)n1 [Example 98, (2S,5S)-2-[6-Methyl-4-(4-trifluoromethyl-phenyl)-pyridin-2-yl]-1,7-diaza-spiro[4.5]decan-6-one hydrochloride]
12 | 1 µM | 15.8 µM | Cc1cc(-c2ccc(C(F)(F)F)cc2)cc([C@H]2CC[C@@]3(CCCNC3=O)N2)n1 [Example 99, (2R,5R)-2-[6-Methyl-4-(4-trifluoromethyl-phenyl)-pyridin-2-yl]-1,7-diaza-spiro[4.5]decan-6-one hydrochloride]
13 | 0.2 µM | 1 µM | Cc1cc(-c2ccc(C(F)(F)F)cc2)cc([C@H]2CC[C@]3(CCCNC3=O)N2)n1 [Example 100, (2R,5S)-2-[6-Methyl-4-(4-trifluoromethyl-phenyl)-pyridin-2-yl]-1,7-diaza-spiro[4.5]decan-6-one hydrochloride]
14 | 10 µM | 12.6 µM | Cc1cc(-c2ccc(C(F)(F)F)cc2)cc([C@@H]2CC[C@@]3(CCCNC3=O)N2)n1 [Example 101, (2S,5R)-2-[6-Methyl-4-(4-trifluoromethyl-phenyl)-pyridin-2-yl]-1,7-diaza-spiro[4.5]decan-6-one hydrochloride]

Second part, the compound before the results:

Row | Structure (SMILES) | IC50 [1] | IC50 [2]
15 | CN1CCC[C@@]2(CC[C@H](c3cc(-c4ccc(F)cc4)ccn3)N2)C1=O [Example 71, (2R,5R)-2-[4-(4-Fluoro-phenyl)-pyridin-2-yl]-7-methyl-1,7-diaza-spiro[4.5]decan-6-one hydrochloride] | 20 µM | 126 µM
16 | CN1CCC[C@@]2(CC[C@@H](c3cc(-c4ccc(F)cc4)ccn3)N2)C1=O [Example 72, (2S,5R)-2-[4-(4-Fluoro-phenyl)-pyridin-2-yl]-7-methyl-1,7-diaza-spiro[4.5]decan-6-one hydrochloride] | 20 µM | 158 µM
17 | CN1CCC[C@]2(CC[C@@H](c3cc(-c4ccc(F)cc4)ccn3)N2)C1=O [Example 73, (2S,5S)-2-[4-(4-Fluoro-phenyl)-pyridin-2-yl]-7-methyl-1,7-diaza-spiro[4.5]decan-6-one hydrochloride] | 20 µM | 200 µM
18 | CN1CCC[C@]2(CC[C@H](c3cc(-c4ccc(F)cc4)ccn3)N2)C1=O [Example 74, (2R,5S)-2-[4-(4-Fluoro-phenyl)-pyridin-2-yl]-7-methyl-1,7-diaza-spiro[4.5]decan-6-one hydrochloride] | 7.94 µM | 63.1 µM
19 | CN1CC[C@@]2(CC[C@H](c3cc(-c4cccc(C(F)(F)F)c4)ccn3)N2)C1=O [Example 75, (2R,5S)-7-Methyl-2-[4-[3-(trifluoromethyl)phenyl]-2-pyridyl]-1,7-diazaspiro[4.4]nonan-6-one hydrochloride] | 20 µM | 126 µM
20 | CCOc1ccc(-c2ccnc([C@H]3CC[C@@]4(CCN(C)C4=O)N3)c2)cc1 [Example 76, (2R,5S)-2-[4-(4-Ethoxyphenyl)-2-pyridyl]-7-methyl-1,7-diazaspiro[4.4]nonan-6-one hydrochloride] | 3.98 µM | 63.1 µM
21 | CN1CC[C@@]2(CC[C@H](c3cc(-c4cc(F)cc(F)c4)ccn3)N2)C1=O [Example 77, (2R,5S)-2-[4-(3,5-Difluorophenyl)-2-pyridyl]-7-methyl-1,7-diazaspiro[4.4]nonan-6-one hydrochloride] | 31.6 µM | 316 µM
22 | Cc1cscc1-c1ccnc([C@H]2CC[C@@]3(CCN(C)C3=O)N2)c1 [Example 78, (2R,5S)-7-Methyl-2-[4-(4-methyl-3-thienyl)-2-pyridyl]-1,7-diazaspiro[4.4]nonan-6-one hydrochloride] | 12.6 µM | 158 µM
23 | CN1CC[C@@]2(CC[C@H](c3cc(-c4ccc5c(ccn5C)c4)ccn3)N2)C1=O [Example 79, (2R,5S)-7-Methyl-2-[4-(1-methylindol-5-yl)-2-pyridyl]-1,7-diazaspiro[4.4]nonan-6-one hydrochloride] | 31.6 µM | 398 µM
24 | COc1cccc(-c2ccnc([C@H]3CC[C@@]4(CCN(C)C4=O)N3)c2)c1Cl [Example 80, (2R,5S)-2-[4-(2-Chloro-3-methoxy-phenyl)-2-pyridyl]-7-methyl-1,7-diazaspiro[4.4]nonan-6-one hydrochloride] | 200 µM | 316 µM
25 | CN1CC[C@@]2(CC[C@H](c3cc(-c4cccc5c4OC(F)(F)O5)ccn3)N2)C1=O [Example 81, (2R,5S)-2-[4-(2,2-Difluoro-1,3-benzodioxol-4-yl)-2-pyridyl]-7-methyl-1,7-diazaspiro[4.4]nonan-6-one hydrochloride] | 3.16 µM | 200 µM
26 | CCOc1cccc(-c2ccnc([C@H]3CC[C@@]4(CCN(C)C4=O)N3)c2)c1 [Example 82, (2R,5S)-2-[4-(3-Ethoxyphenyl)-2-pyridyl]-7-methyl-1,7-diazaspiro[4.4]nonan-6-one hydrochloride] | 7.94 µM | 200 µM
27 | COc1ccc(Cl)c(-c2ccnc([C@H]3CC[C@@]4(CCN(C)C4=O)N3)c2)c1 [Example 83, (2R,5S)-2-[4-(2-Chloro-5-methoxy-phenyl)-2-pyridyl]-7-methyl-1,7-diazaspiro[4.4]nonan-6-one hydrochloride] | 31.6 µM | 200 µM
28 | CN1CC[C@@]2(CC[C@H](c3cc(-c4cc(OC(F)F)ccc4F)ccn3)N2)C1=O [Example 84, (2R,5S)-2-[4-[5-(Difluoromethoxy)-2-fluoro-phenyl]-2-pyridyl]-7-methyl-1,7-diazaspiro[4.4]nonan-6-one hydrochloride] | 20 µM | 200 µM
29 | Cc1cc(-c2ccc(OC(C)C)cc2)cc([C@H]2CC[C@@]3(CCN(C)C3=O)N2)n1 [Example 85, (2R,5S)-2-[4-(4-Isopropoxyphenyl)-6-methyl-2-pyridyl]-7-methyl-1,7-diazaspiro[4.4]nonan-6-one hydrochloride] | 0.316 µM | 10 µM
30 | Cc1cc(-c2ccc(OC(C)C)cc2)cc([C@@H]2CC[C@@]3(CCN(C)C3=O)N2)n1 [Example 86, (2S,5S)-2-[4-(4-Isopropoxyphenyl)-6-methyl-2-pyridyl]-7-methyl-1,7-diazaspiro[4.4]nonan-6-one hydrochloride] | 10 µM | 100 µM
31 | Cc1ccc(-c2cc(C)nc([C@H]3CC[C@@]4(CCN(C)C4=O)N3)c2)cc1 [Example 87, (2R,5S)-7-Methyl-2-[6-methyl-4-(p-tolyl)-2-pyridyl]-1,7-diazaspiro[4.4]nonan-6-one hydrochloride] | 6.31 µM | 126 µM
